The subject of one assay is German cockroaches. The assay can be described thus: Topical toxicity evaluation on adult German cockroaches, mortality (dead/moribund) at 24 hours. The class given is in vivo, Blattella germanica (German cockroach). The protocol:
Toxicity evaluations were performed on 7-14 day old adult male and female German cockroaches (SCJ Strain, S.C. Johnson & Son, Racine, Wis.). Approximately 12 cockroaches were transferred to individual 100×20 mm polystyrene Petri dishes and anesthetized with a 15-25 second exposure to carbon dioxide. The inside edge of each Petri dish was lightly coated with mineral oil plus petroleum jelly in a 1:3 (wt/wt) ratio to minimize escape. Anesthetized cockroaches were positioned with their ventral side up, and a 1 μl drop of the diluted test composition was applied to the area between the meso- and metathoracic legs using a Rainin L-10, 10 μl capacity pipette (Rainin Instrument, LLC, Oakland, Calif.). Five replications of 12 male cockroaches were done for each test composition. Separate tests were done using female cockroaches. Results were evaluated at 24 hours following treatment. Cockroaches were scored as either alive (dorsal side up, active movement when abdomen prodded with dissecting probe) or moribund/dead (dorsal side up and no movement when abdomen prodded or ventral side up and insect unable to right itself).
The compositions comprising alcohol and/or mineral oil are described in Table 13.

For another assay, the system named is cockroaches. The assay can be described thus: LD50 and LD10 determination for cockroaches (dose-response mortality, probit analysis). To be noted: for LD10 mg/insect / LD50 mg/insect: cockroaches, probit analysis. The assay is classed as in vivo. The protocol:
In this example, various mineral oils and alcohols were tested to determine, for cockroaches, the LD50 and LD10 for each.
PD23 and PD28 mineral oils were obtained from Sonneborn LLC, Mahwah, N.J. The physical properties of these oils are shown in Table 11. Each mineral oil was tested to determine the LD50 and LD10 (Table 12).
The tested alcohols were obtained from Sigma-Aldrich Corp., St. Louis, Mo. Each alcohol was tested to determine the LD50 and LD10 (Table 12).

[1] abbreviates: Table 14, composite data, amounts in label.
The mark [2] stands for this setting: Table 18, Exxsol D95 mineral oil, amounts in label.
[3] abbreviates: Table 17, composite data, amounts in label.
Where [4] appears, read: Table 17, composite data, amounts in label, listed as nitromethane (75-52-5) (0.80 mg).
[5] abbreviates: Table 3, male cockroaches, remainder acetone, per replicate.

Values joined by “and” are separate entries in the source; they are usually repeats but may differ in a detail not shown here. Equal entries are not always repeated.

For the molecule `CCCCO` [Composition 1-butanol, 1-butanol], the “# dead at 24 h” value in the assay with German cockroaches (Table 13, per replicate (# treated 10-16), amounts in label, listed as 1-butanol (0.8 mg)) is 0 (2×) and 1; with German cockroaches (setting [1]), 1. In addition, the “Proportion dead at 24 h” value in the assay on German cockroaches (Table 13, per replicate, amounts in label, listed as 1-butanol (0.8 mg)) is 0.000 (2×) and 0.100; with German cockroaches (setting [1]), 0.029. The same molecule registered an LD10 mg/insect in the assay on cockroaches of 0.877 mg/insect. In addition, the LD50 mg/insect in the assay on cockroaches turned out to be 1.018 mg/insect.

As to `CCCO` [Composition 1-propanol, 1-propanol], the “# dead at 24 h” value is 1 and 0 (2×) in the assay on German cockroaches (Table 13, per replicate (# treated 10-16), amounts in label, listed as 1-propanol (0.45 mg)); 1 in the assay on German cockroaches (setting [1]); 1 in the assay with German cockroaches (setting [2]). Further, the “Proportion dead at 24 h” value is 0.083 and 0.000 (2×) in the assay on German cockroaches (Table 13, per replicate, amounts in label, listed as 1-propanol (0.45 mg)); 0.028 with German cockroaches (setting [1]); 0.028 in the assay on German cockroaches (setting [2]). Further, the “synergy with EXXSOL D95” value with German cockroaches (alone and in combination with Exxsol D95 mineral oil) was “significant synergy”. In the assay with cockroaches (as detailed in Example 9), this molecule showed an LD10 of 0.472 mg/insect. Moreover, in the assay with cockroaches, the LD10 mg/insect came out at 0.472 mg/insect. The same molecule registered an LD50 mg/insect in the assay with cockroaches of 0.557 mg/insect.

Regarding `CCC(C)O` (stereo not drawn) [Composition 2-butanol, 2-butanol], the “# dead at 24 h” value in the assay on German cockroaches (Table 13, per replicate (# treated 10-16), amounts in label, listed as 2-butanol (0.8 mg)) is 0 (2×) and 1. For the same molecule, the “Proportion dead at 24 h” value in the assay on German cockroaches (Table 13, per replicate, amounts in label, listed as 2-butanol (0.8 mg)) was 0.000 (2×) and 0.083. Further, in the assay with German cockroaches (setting [1]), the “# dead at 24 h” value came to 1 and the “Proportion dead at 24 h” value was determined as 0.026. In the assay with cockroaches, the LD10 mg/insect is recorded as 0.881 mg/insect and the LD50 mg/insect is 1.188 mg/insect.

In the case of `CN1CCCC1=O` [n-methyl pyrrolidone], the “Proportion dead at 24 h” value is listed as 0.100 with German cockroaches (setting [3]) and 0.500 in the assay with German cockroaches (Table 17, composite data, amounts in label, listed as n-methyl pyrrolidone (872-50-4) (0.10 mg)). Moreover, the “# dead at 24 h” value came out at 1 in the assay on German cockroaches (topical, compound 0.05 mg (PD23 0.40 mg in combinations), 24 h, count of # treated) and 5 in the assay with German cockroaches (topical, compound 0.10 mg (PD23 0.40 mg in combinations), 24 h, count of # treated).

As to `C[N+](=O)[O-]` [nitromethane (75-52-5) (0.70 mg), nitromethane], the “# dead at 24 h” value in the assay with German cockroaches (setting [3]) was found to be 0. Moreover, in the assay on German cockroaches (setting [4]), the “# dead at 24 h” value is reported as 5 and the “Proportion dead at 24 h” value was 0.179. In addition, the “increase (difference) in mortality when combined with PD23 mineral oil” value in the assay on German cockroaches (compared to the other alcohols/compounds tested) is “greatest increase in mortality”.

As for `CC(C)(C)O` [tertiary butyl alcohol], the “# dead at 24 h” value in the assay with German cockroaches (Table 13, per replicate (# treated 10-16), amounts in label, listed as t-butyl alcohol (0.5 mg)) was 0 (3×) and 2; in the assay with German cockroaches (setting [1]), 2. Further, the “Proportion dead at 24 h” value was 0.000 with German cockroaches (Table 13, per replicate, amounts in label, listed as t-butyl alcohol (0.5 mg)) and 0.045 with German cockroaches (setting [1]).

For Diisopropyl biphenyl, in the assay with German cockroaches (setting [3]), the “# dead at 24 h” value was 0 and the “Proportion dead at 24 h” value came out at 0.000.

As to Hexanes, the “Proportion dead at 24 hr” value with German cockroaches (topical, compound 0.80 mg (PD23 0.40 mg in combinations), 24 h) came to 0.100. Moreover, in the assay with German cockroaches (topical, compound 0.80 mg (PD23 0.40 mg in combinations), 24 h, count of # treated), the “# dead at 24 h” value worked out at 1.

For Hexylene glycol [Hexylene glycol (20%)], in the assay with German cockroaches (setting [5]), the “Arcsine square root % dead” value is 0, the Proportion dead is 0 and the “Square root % dead” value was determined as 0. For the same molecule, the “# dead” value in the assay on German cockroaches (Table 3, male cockroaches, remainder acetone, per replicate (# tested 12-14)) was 1 and 0 (2×) and 3.

For the origin of these results see patent publication US9005644B2, “Pesticidal compositions” (BASF Corporation, priority 2008, dated 2015).
